Test results reported in ChEMBL document CHEMBL4393686, “InCl3 mediated heteroarylation of indoles and their derivatization via CH activation strategy: Discovery of 2-(1H-indol-3-yl)-quinoxaline derivatives as a new class of PDE4B selective inhibitors for arthritis and/or multiple sclerosis” (Eur J Med Chem, 2019).
Active and inactive are the calls of the source. The calls are words filed in the database; no cut-off is given here.

System: Rattus norvegicus
Assay: Antiinflammatory activity in complete Freund's adjuvant-induced Wistar rat arthritis model assessed as reduction in TNFalpha expression in serum at 30 mg/kg, ip administered from 11th day to 20th day by ELISA
Format: functional, organism-based

C=CCn1cc(-c2nc3ccccc3nc2Cl)c2cc(OC)ccc21
inhibition: Active
